In the supplement of paper PMC10307832:

Columns and labels:
Experiment in all cases: relative viability (nuclei count vs DMSO), 5 days (fraction); higher = more cells survive
[1] = test system: ChaGo-K-1
Summary of the method: (§1)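 Lung cancer cell lines, seeded in 1536-well plates, were treated the following day by pin tool with a single drug or with five library-drug doses (not always all listed) in √10 steps on top of a fixed anchor-drug dose. Cells were fixed and nuclei stained in one step after 5 days, and nuclei were counted. Relative viability is the nuclei count for treated wells divided by that for vehicle wells, reported as medians of duplicate plates.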

[2] = test system: RERF-LC-KJ
Summary of the method: as §1

[3] = test system: NCI-H2087
Summary of the method: as §1

[4] = test system: BEN
Summary of the method: as §1

[5] = test system: NCI-H1792
Summary of the method: as §1

[6] = test system: LU99A
Summary of the method: as §1

[7] = test system: EMC-BAC-2
Summary of the method: as §1

[8] = test system: EKVX
Summary of the method: as §1

[9] = test system: LK-2
Summary of the method: as §1

[10] = test system: NCI-H1734
Summary of the method: as §1

[11] = test system: LOU-NH91
Summary of the method: as §1

[12] = test system: NCI-H358
Summary of the method: as §1

[13] = test system: HCC-78
Summary of the method: as §1

[14] = test system: HCC-827
Summary of the method: as §1

[15] = test system: NCI-H1650
Summary of the method: as §1

[16] = test system: NCI-H727
Summary of the method: as §1

[17] = test system: NCI-H2126
Summary of the method: as §1

[18] = test system: COR-L 105
Summary of the method: as §1

[19] = test system: NCI-H1944
Summary of the method: as §1

[20] = test system: SW 1573
Summary of the method: as §1

[21] = test system: EPLC-272H
Summary of the method: as §1

[22] = test system: SK-MES-1
Summary of the method: as §1

[23] = test system: LCLC-97TM1
Summary of the method: as §1

Structure (SMILES): Cc1cnc(-c2cnc(NCCNc3ccc(C#N)cn3)nc2-c2ccc(Cl)cc2Cl)[nH]1 + COc1cccc2cc(-c3nc([C@H]4CC[C@H](C(=O)O)CC4)n4ncnc(N)c34)[nH]c12 [OSI-027] (partner 0.5 µM)
- relative viability ([1]; first compound 0.08 µM): 0.608
- relative viability ([1]; first compound 0.253 µM): 0.442
- relative viability ([1]; first compound 0.8 µM): 0.623
- relative viability ([1]; first compound 2.53 µM): 0.592
- relative viability ([2]; first compound 0.08 µM): 0.672
- relative viability ([2]; first compound 0.253 µM): 0.591
- relative viability ([2]; first compound 0.8 µM): 0.454
- relative viability ([2]; first compound 2.53 µM): 0.697
- relative viability ([3]; first compound 0.08 µM): 0.48
- relative viability ([3]; first compound 0.253 µM): 0.467
- relative viability ([3]; first compound 0.8 µM): 0.507
- relative viability ([3]; first compound 2.53 µM): 0.44
- relative viability ([4]; first compound 0.08 µM): 0.352
- relative viability ([4]; first compound 0.253 µM): 0.307
- relative viability ([4]; first compound 0.8 µM): 0.324
- relative viability ([4]; first compound 2.53 µM): 0.371
- relative viability ([5]; first compound 0.08 µM): 0.866
- relative viability ([5]; first compound 0.253 µM): 0.715
- relative viability ([5]; first compound 0.8 µM): 0.618
- relative viability ([5]; first compound 2.53 µM): 0.666
- relative viability ([6]; first compound 0.08 µM): 0.291
- relative viability ([6]; first compound 0.253 µM): 0.304
- relative viability ([6]; first compound 0.8 µM): 0.327
- relative viability ([6]; first compound 2.53 µM): 0.401
- relative viability ([7]; first compound 0.08 µM): 0.407
- relative viability ([7]; first compound 0.253 µM): 0.37
- relative viability ([7]; first compound 0.8 µM): 0.341
- relative viability ([7]; first compound 2.53 µM): 0.447
- relative viability ([8]; first compound 0.08 µM): 0.768
- relative viability ([8]; first compound 0.253 µM): 0.706
- relative viability ([8]; first compound 0.8 µM): 0.589
- relative viability ([8]; first compound 2.53 µM): 0.624
- relative viability ([9]; first compound 0.08 µM): 0.204
- relative viability ([9]; first compound 0.253 µM): 0.248
- relative viability ([9]; first compound 0.8 µM): 0.231
- relative viability ([9]; first compound 2.53 µM): 0.318
- relative viability ([10]; first compound 0.08 µM): 0.66
- relative viability ([10]; first compound 0.253 µM): 0.547
- relative viability ([10]; first compound 0.8 µM): 0.597
- relative viability ([10]; first compound 2.53 µM): 0.616
- relative viability ([11]; first compound 0.08 µM): 0.732
- relative viability ([11]; first compound 0.253 µM): 0.709
- relative viability ([11]; first compound 0.8 µM): 0.751
- relative viability ([11]; first compound 2.53 µM): 0.673
- relative viability ([12]; first compound 0.08 µM): 0.843
- relative viability ([12]; first compound 0.253 µM): 0.647
- relative viability ([12]; first compound 0.8 µM): 0.771
- relative viability ([12]; first compound 2.53 µM): 0.627
- relative viability ([13]; first compound 0.08 µM): 0.41
- relative viability ([13]; first compound 0.253 µM): 0.391
- relative viability ([13]; first compound 0.8 µM): 0.366
- relative viability ([13]; first compound 2.53 µM): 0.438
- relative viability ([14]; first compound 0.08 µM): 0.903
- relative viability ([14]; first compound 0.8 µM): 0.814
- relative viability ([14]; first compound 2.53 µM): 0.759
- relative viability ([15]; first compound 0.08 µM): 0.75
- relative viability ([15]; first compound 0.253 µM): 0.61
- relative viability ([15]; first compound 0.8 µM): 0.554
- relative viability ([15]; first compound 2.53 µM): 0.56
- relative viability ([16]; first compound 0.08 µM): 0.588
- relative viability ([16]; first compound 0.253 µM): 0.589
- relative viability ([16]; first compound 0.8 µM): 0.518
- relative viability ([16]; first compound 2.53 µM): 0.442
- relative viability ([17]; first compound 0.08 µM): 0.704
- relative viability ([17]; first compound 0.253 µM): 0.622
- relative viability ([17]; first compound 0.8 µM): 0.64
- relative viability ([17]; first compound 2.53 µM): 0.776
- relative viability ([18]; first compound 0.08 µM): 0.769
- relative viability ([18]; first compound 0.253 µM): 0.661
- relative viability ([18]; first compound 0.8 µM): 0.694
- relative viability ([18]; first compound 2.53 µM): 0.379
- relative viability ([19]; first compound 0.08 µM): 0.422
- relative viability ([19]; first compound 0.8 µM): 0.489
- relative viability ([19]; first compound 2.53 µM): 0.685
- relative viability ([20]; first compound 0.08 µM): 0.538
- relative viability ([20]; first compound 0.253 µM): 0.483
- relative viability ([20]; first compound 0.8 µM): 0.33
- relative viability ([20]; first compound 2.53 µM): 0.363
- relative viability ([21]; first compound 0.08 µM): 0.342
- relative viability ([21]; first compound 0.253 µM): 0.261
- relative viability ([21]; first compound 0.8 µM): 0.304
- relative viability ([21]; first compound 2.53 µM): 0.317
- relative viability ([22]; first compound 0.08 µM): 0.738
- relative viability ([22]; first compound 0.253 µM): 0.594
- relative viability ([22]; first compound 0.8 µM): 0.528
- relative viability ([22]; first compound 2.53 µM): 0.777
- relative viability ([23]; first compound 0.08 µM): 0.648
- relative viability ([23]; first compound 0.8 µM): 0.646
- relative viability ([23]; first compound 2.53 µM): 0.688
